The record followed here is patent US11820766B2, “Monoacylglycerol lipase modulators” (Janssen Pharmaceutica NV, priority 2018, dated 2023).

The first test addresses T1, human MGL from HeLa cells (Homo sapiens, UniProt Q99685).
T1 construct: combining endogenously expressed MGL from HeLa cells with test compounds; endogenous in cells; host or cells: HeLa cells / cell homogenates
T1 sequence (Q99685 1-303): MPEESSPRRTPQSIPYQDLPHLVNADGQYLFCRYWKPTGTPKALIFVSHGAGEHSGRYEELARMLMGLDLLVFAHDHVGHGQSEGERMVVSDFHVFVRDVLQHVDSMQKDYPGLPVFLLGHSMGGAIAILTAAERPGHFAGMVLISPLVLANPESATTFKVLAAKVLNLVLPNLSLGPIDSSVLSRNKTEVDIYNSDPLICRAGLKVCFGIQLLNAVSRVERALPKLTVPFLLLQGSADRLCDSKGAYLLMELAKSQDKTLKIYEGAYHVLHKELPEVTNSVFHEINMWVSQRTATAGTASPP
The experiment in a line: In vitro MGL activity assay: [glycerol-1,3-3H]-oleyl glycerol cleavage by MGL from HeLa cells. Type of test: biochemical. Conditions: 300 nM [Glycerol-1,3-3H]-oleyl glycerol, one hour. The source says: MGL is the predominant hydrolase in HeLa cells/cell homogenates.
A word on the IC50: it is the concentration that inhibits the measured activity by half. The low end stands for greater potency in that assay, the high end for weaker potency in that assay. In turn, `COc1ccc(-c2c3c(nn2C)[C@H](C)N(C(=O)c2ccc4ncccc4c2)CC3)cc1C` [Example 512, [(7S)-3-(4-Methoxy-3-methyl-phenyl)-2,7-dimethyl-5,7-dihydro-4H-pyrazolo[3,4-c]pyridin-6-yl]-(6-quinolyl)methanone] returned an IC50 of 185 nM.

Consider `Cc1ccc2ncc(C(=O)N3CCc4c(nn(C)c4-c4cc(F)c(F)c(F)c4)[C@@H]3C)n2c1` [Example 400, [(7S)-2,7-Dimethyl-3-(3,4,5-trifluorophenyl)-5,7-dihydro-4H-pyrazolo[3,4-c]pyridin-6-yl]-(6-methylimidazo[1,2-a]pyridin-3-yl)methanone], for which the IC50 worked out at 52.3 nM.

`Cc1ccnc2ccc(C(=O)N3CCc4c(nn(C)c4-c4cc(F)c(F)c(F)c4)[C@@H]3C)cc12` [Example 549, [(7S)-2,7-Dimethyl-3-(3,4,5-trifluorophenyl)-5,7-dihydro-4H-pyrazolo[3,4-c]pyridin-6-yl]-(4-methyl-6-quinolyl)methanone] came in with a concentration for half-maximal inhibition (IC50) of 1.99 nM.

As for `Cc1cn(C)c2ncnc(C(=O)N3CCc4c(nn(C)c4-c4cc(F)c(F)c(F)c4)[C@@H]3C)c12` [Example 467, (5,7-Dimethylpyrrolo[2,3-d]pyrimidin-4-yl)-[(7S)-2,7-dimethyl-3-(3,4,5-trifluorophenyl)-5,7-dihydro-4H-pyrazolo[3,4-c]pyridin-6-yl] methanone], inhibition was half-maximal at 36.1 nM (IC50).

Take `C[C@H]1c2nn(C)c(-c3cc(F)c(F)c(F)c3)c2CCN1C(=O)c1ccc2c(c1)COCC2` [Example 577, [(7S)-2,7-Dimethyl-3-(3,4,5-trifluorophenyl)-5,7-dihydro-4H-pyrazolo[3,4-c]pyridin-6-yl]-isochroman-7-yl-methanone]: the IC50 came out at 32.2 nM.

The compound `Cc1nn2cccnc2c1C(=O)N1CCc2c(nn(C)c2-c2cc(F)c(F)c(F)c2)[C@@H]1C` [Example 449, [(7S)-2,7-Dimethyl-3-(3,4,5-trifluorophenyl)-5,7-dihydro-4H-pyrazolo[3,4-c]pyridin-6-yl]-(2-methylpyrazolo[1,5-a]pyrimidin-3-yl)methanone] registered an IC50 of 49 nM.

Take `C[C@H]1c2nn(-c3ccccc3)c(-c3ccccc3)c2CCN1C(=O)c1cnn(C)c1C1CC1` [Example 350, (S)-(5-cyclopropyl-1-methyl-1H-pyrazol-4-yl) (7-methyl-2,3-diphenyl-2,4,5,7-tetrahydro-6H-pyrazolo[3,4-c]pyridin-6-yl)methanone]: half-maximal inhibition (IC50) required 27.6 nM.

Take `C[C@H]1c2nn(C)c(-c3cc(F)c(F)c(F)c3)c2CCN1C(=O)c1nccc2ncccc12` [Example 486]: the IC50 was 13.7 nM.

Compound `C[C@H]1c2nn(C)c(-c3cc(F)c(F)c(F)c3)c2CCN1C(=O)c1c(C(F)(F)F)cnc2[nH]ccc12` [Example 371, [(7S)-2,7-Dimethyl-3-(3,4,5-trifluorophenyl)-5,7-dihydro-4H-pyrazolo[3,4-c]pyridin-6-yl]-[5-(trifluoromethyl)-1H-pyrrolo[2,3-b]pyridin-4-yl] methanone] registered an IC50 of 136 nM.

Consider `C[C@H]1c2nn(C)c(-c3cc(F)c(F)c(F)c3)c2CCN1C(=O)c1c(C(F)F)nc2n1CCCC2` [Example 561, [2-(Difluoromethyl)-5,6,7,8-tetrahydroimidazo[1,2-a]pyridin-3-yl]-[(7S)-2,7-dimethyl-3-(3,4,5-trifluorophenyl)-5,7-dihydro-4H-pyrazolo[3,4-c]pyridin-6-yl]methanone], for which the IC50 stood at 326 nM.

As to `Cc1nc2c(C)ccnn2c1C(=O)N1CCc2c(nn(C)c2-c2cc(F)c(F)c(F)c2)[C@@H]1C` [Example 456, (2,8-Dimethylimidazo[1,2-b]pyridazin-3-yl)-[(7S)-2,7-dimethyl-3-(3,4,5-trifluorophenyl)-5,7-dihydro-4H-pyrazolo[3,4-c]pyridin-6-yl]methanone], the IC50 amounted to 25.4 nM.

`Cc1cc2c(C(=O)N3CCc4c(nn(C)c4-c4cc(F)c(F)c(F)c4)[C@@H]3C)ncnc2n1C` [Example 469, (6,7-Dimethylpyrrolo[2,3-d]pyrimidin-4-yl)-[(7S)-2,7-dimethyl-3-(3,4,5-trifluorophenyl)-5,7-dihydro-4H-pyrazolo[3,4-c]pyridin-6-yl]methanone] yielded a 50% inhibitory concentration (IC50) of 36.4 nM.

With `Cc1c(C(=O)N2CCc3c(nn(C)c3-c3cc(F)c(F)c(F)c3)[C@@H]2C)cnn1C` [Example 345, (1,5-Dimethylpyrazol-4-yl)-[(7S)-2,7-dimethyl-3-(3,4,5-trifluorophenyl)-5,7-dihydro-4H-pyrazolo[3,4-c]pyridin-6-yl]methanone], half-maximal inhibition (IC50) was put at 52.8 nM.

`COc1cc(F)cc(-c2c3c(nn2C)[C@H](C)N(C(=O)c2ccnc(OC)c2C)CC3)c1` [Example 613, [(7S)-3-(3-Fluoro-5-methoxy-phenyl)-2,7-dimethyl-5,7-dihydro-4H-pyrazolo[3,4-c]pyridin-6-yl]-(2-methoxy-3-methyl-4-pyridyl)methanone] displayed an IC50 of 27.8 nM.

`Cc1ccc(-c2c3c(nn2C)[C@H](C)N(C(=O)c2ccc4ncccc4c2)CC3)cn1` [Example 519, [(7S)-2,7-Dimethyl-3-(6-methyl-3-pyridyl)-5,7-dihydro-4H-pyrazolo[3,4-c]pyridin-6-yl]-(6-quinolyl)methanone]: the IC50 worked out at 1450 nM.

Staying with this test, now noted: 300 nM [Glycerol-1,3-3H]-oleyl glycerol, one hour incubation.
In turn, `Cn1nc2c(c1-c1ccccc1)CCN(C(=O)c1cccc3[nH]ncc13)C2` [Example 65, (1H-Indazol-4-yl)(2-methyl-3-phenyl-2,4,5,7-tetrahydro-6H-pyrazolo[3,4-c]pyridin-6-yl)methanone] came in with an IC50 of 101 nM.

As for `CC1c2nn(C)c(-c3cc(F)cc(Cl)c3)c2CCN1C(=O)c1ccc2ncccc2c1` (centres unmarked) [Example 177, (3-(3-Chloro-5-fluorophenyl)-2,7-dimethyl-2,4,5,7-tetrahydro-6H-pyrazolo[3,4-c]pyridin-6-yl)(quinolin-6-yl)methanone], the IC50 was found to be 15.9 nM.

In the case of `Cn1nc2c(c1-c1ccccc1)CCN(C(=O)c1cccc3ccoc13)C2` [Example 33, Benzofuran-7-yl(2-methyl-3-phenyl-2,4,5,7-tetrahydro-6H-pyrazolo[3,4-c]pyridin-6-yl)methanone], the IC50 came out at 89.9 nM.

For `Cc1ccc(-n2nccn2)c(C(=O)N2CCc3c(nn(C)c3-c3cc(F)c(F)c(F)c3)[C@@H]2C)n1` [Example 319, [(7S)-2,7-Dimethyl-3-(3,4,5-trifluorophenyl)-5,7-dihydro-4H-pyrazolo[3,4-c]pyridin-6-yl]-[6-methyl-3-(triazol-2-yl)-2-pyridyl]methanone], the IC50 turned out to be 255 nM.

In the case of `Cn1nc2c(c1-c1ccccc1)CCN(C(=O)c1ccnc3c(F)cccc13)C2` [Example 96, (8-Fluoroquinolin-4-yl)(2-methyl-3-phenyl-2,4,5,7-tetrahydro-6H-pyrazolo[3,4-c]pyridin-6-yl)methanone], half-maximal inhibition (IC50) required 258 nM.

Turning to `C[C@H]1c2nn(C)c(-c3cc(F)c(F)c(F)c3)c2CCN1C(=O)c1cnc2cccnc2c1` [Example 245, (S)-(2,7-Dimethyl-3-(3,4,5-trifluorophenyl)-2,4,5,7-tetrahydro-6H-pyrazolo[3,4-c]pyridin-6-yl)(1,5-naphthyridin-3-yl)methanone], the midpoint of inhibition, the IC50, lay at 122 nM.

In the case of `C[C@H]1c2nn(C)c(-c3cc(F)c(F)c(F)c3)c2CCN1C(=O)c1cccc(OC(F)(F)F)c1` [Example 262, [(7S)-2,7-Dimethyl-3-(3,4,5-trifluorophenyl)-5,7-dihydro-4H-pyrazolo[3,4-c]pyridin-6-yl]-[3-(trifluoromethoxy)phenyl]methanone], the IC50 was 52.8 nM.

For the compound `Cn1nc2c(c1-c1ccccc1)CCN(C(=O)c1ccc3ccccc3n1)C2` [Example 94, (2-Methyl-3-phenyl-2,4,5,7-tetrahydro-6H-pyrazolo[3,4-c]pyridin-6-yl)(quinolin-2-yl)methanone], the IC50 came out at 282 nM.

On to `COc1cncc(C(=O)N2CCc3c(nn(C)c3-c3cc(F)c(F)c(F)c3)[C@@H]2C)c1C` [Example 313, [(7S)-2,7-Dimethyl-3-(3,4,5-trifluorophenyl)-5,7-dihydro-4H-pyrazolo[3,4-c]pyridin-6-yl]-(5-methoxy-4-methyl-3-pyridyl)methanone], for which it took 38 nM to reach half-maximal inhibition (IC50).

`Cn1nc2c(c1-c1ccccc1)CCN(C(=O)c1cccc3occc13)C2` [Example 34, Benzofuran-4-yl(2-methyl-3-phenyl-2,4,5,7-tetrahydro-6H-pyrazolo[3,4-c]pyridin-6-yl)methanone] returned an IC50 of 300 nM.

`C[C@H]1c2nn(C)c(-c3cc(F)c(F)c(F)c3)c2CCN1C(=O)c1cnc2ccccn12` [Example 213, (S)-(2,7-Dimethyl-3-(3,4,5-trifluorophenyl)-2,4,5,7-tetrahydro-6H-pyrazolo[3,4-c]pyridin-6-yl)(imidazo[1,2-a]pyridin-3-yl)methanone] had an IC50 of 25.6 nM.

As for `C[C@H]1c2nn(C)c(-c3cc(F)c(F)c(F)c3)c2CCN1C(=O)c1cccc2cnn(C)c12` [Example 209, (S)-(2,7-Dimethyl-3-(3,4,5-trifluorophenyl)-2,4,5,7-tetrahydro-6H-pyrazolo[3,4-c]pyridin-6-yl)(1-methyl-1H-indazol-7-yl)methanone], the IC50 worked out at 11.1 nM.

In turn, `Cn1nc2c(c1-c1ccccc1)CCN(C(=O)c1cccc3ncccc13)C2` [Example 89, (2-Methyl-3-phenyl-2,4,5,7-tetrahydro-6H-pyrazolo[3,4-c]pyridin-6-yl)(quinolin-5-yl)methanone] displayed an IC50 of 56 nM.

Consider `Cc1cccc(C(=O)N2CCc3c(nn(C)c3-c3ccccc3)C2)c1N` [Example 17, (2-Amino-3-methylphenyl)(2-methyl-3-phenyl-2,4,5,7-tetrahydro-6H-pyrazolo[3,4-c]pyridin-6-yl)methanone], for which the IC50 came to 1400 nM.
